According to ChEMBL document CHEMBL5154930, “Design, Synthesis, and Biological Evaluations of DOT1L Peptide Mimetics Targeting the Protein-Protein Interactions between DOT1L and MLL-AF9/MLL-ENL” (J Med Chem, 2022):
Activity calls are given as the source filed them. The calls are words filed in the database; no cut-off is given here.

Tests used:
MOLM-13 [1] = test: Down regulation of CDK6 gene in human MOLM-13 cells by RNA-sequencing analysis; type: functional, cell-based
MOLM-13 [2] = test: Down regulation of ARID1B gene in human MOLM-13 cells by RNA-sequencing analysis; type: functional, cell-based
MOLM-13 [3] = test: Down regulation of […] gene in human MOLM-13 cells by RNA-sequencing analysis; type: functional, cell-based
MOLM-13 [4] = test: Down regulation of CNOT6L gene in human MOLM-13 cells by RNA-sequencing analysis; type: functional, cell-based
MOLM-13 [5] = test: Down regulation of HOXA9 gene in human MOLM-13 cells by RNA-sequencing analysis; type: functional, cell-based
MOLM-13 [6] = test: Down regulation of HOXA5 gene in human MOLM-13 cells by RNA-sequencing analysis; type: functional, cell-based
MOLM-13 [7] = test: Down regulation of TUBA1B gene in human MOLM-13 cells by RNA-sequencing analysis; type: functional, cell-based
MOLM-13 [8] = test: Down regulation of ARID2 gene in human MOLM-13 cells by RNA-sequencing analysis; type: functional, cell-based
MOLM-13 [9] = test: Down regulation of GBE1 gene in human MOLM-13 cells by RNA-sequencing analysis; type: functional, cell-based
MOLM-13 [10] = test: Down regulation of JMJD1C gene in human MOLM-13 cells by RNA-sequencing analysis; type: functional, cell-based
MOLM-13 [11] = test: Down regulation of RUNX1 gene in human MOLM-13 cells by RNA-sequencing analysis; type: functional, cell-based
MOLM-13 [12] = test: Down regulation of DCUN1D1 gene in human MOLM-13 cells by RNA-sequencing analysis; type: functional, cell-based
MOLM-13 [13] = test: Down regulation of HOXA3 gene in human MOLM-13 cells by RNA-sequencing analysis; type: functional, cell-based
MOLM-13 [14] = test: Down regulation of CDK1 gene in human MOLM-13 cells by RNA-sequencing analysis; type: functional, cell-based
MOLM-13 [15] = test: Down regulation of CDKN1B gene in human MOLM-13 cells by RNA-sequencing analysis; type: functional, cell-based
RS4-11 = test: Anticancer activity against human RS4-11 cells assessed as inhibition of cell growth treated for 8 days measured by CCK-8 kit method; type: functional, cell-based; conditions: RS4-11, 192 h
MV4-11 = test: Anticancer activity against human MV4-11 cells assessed as inhibition of cell growth treated for 8 days measured by CCK-8 kit method; type: functional, cell-based; conditions: MV4-11, 192 h
K562 = test: Anticancer activity against human K562 cells assessed as inhibition of cell growth treated for 8 days measured by CCK-8 kit method; type: functional, cell-based; conditions: K562, 192 h
MOLM-13 [16] = test: Induction of apoptosis in human MOLM-13 cells at 0.125 to 0.5 uM treated for 7 days by Annexin V-FITC/PI staining based flow cytometry analysis; type: functional, cell-based; conditions: dose 0.125-0.5 µM, time 7.0 day
MOLM-13 [17] = test: Inhibition of MEIS1 gene expression in human MOLM-13 cells measured at 0.125 to 0.5 uM after 6 days by RT-qPCR analysis; type: functional, cell-based; conditions: dose 0.125-0.5 µM, time 6.0 day
MOLM-13 [18] = test: Inhibition of MEIS1 expression in human MOLM-13 cells at 0.25 uM by RT-qPCR analysis; type: functional, cell-based; conditions: time 2-6 day, TDE = time-dependent effect
MOLM-13 [19] = test: Down regulation of HPGD gene in human MOLM-13 cells by RNA-sequencing analysis; type: functional, cell-based
MOLM-13 [20] = test: Inhibition of HOXA9 gene expression in human MOLM-13 cells measured at 0.125 to 0.5 uM after 6 days by RT-qPCR analysis; type: functional, cell-based; conditions: dose 0.125-0.5 µM, time 6.0 day
MOLM-13 [21] = test: Inhibition of HOXA9 gene expression in human MOLM-13 cells at 0.25 uM by RT-qPCR analysis; type: functional, cell-based; conditions: time 2-6 day, TDE = time-dependent effect
MOLM-13 [22] = test: Disruption of AF9-mediated DOT1L recruitment in human […] cells assessed as decrease in global H3K79 methylation level at 0.125 uM measured after 8 days by Western blotting analysis; type: cell-based; conditions: time 8.0 day
MOLM-13 [23] = test: Inhibition of methylation of H3K79 in human MOLM-13 cells assessed as inhibition of methylation at HOXA1 gene cluster by chromatin immunoprecipitation assay; type: functional, cell-based
MOLM-13 [24] = test: Inhibition of methylation of H3K79 in human MOLM-13 cells assessed as inhibition of methylation at HOXA3 gene cluster by chromatin immunoprecipitation assay; type: functional, cell-based
MOLM-13 [25] = test: Inhibition of methylation of H3K79 in human MOLM-13 cells assessed as inhibition of methylation at […] gene cluster by chromatin immunoprecipitation assay; type: functional, cell-based
MOLM-13 [26] = test: Inhibition of methylation of H3K79 in human MOLM-13 cells assessed as inhibition of methylation at HOXA9 gene cluster by chromatin immunoprecipitation assay; type: functional, cell-based
MOLM-13 [27] = test: Inhibition of methylation of H3K79 in human MOLM-13 cells assessed as inhibition of methylation at HOXA13 gene cluster by chromatin immunoprecipitation assay; type: functional, cell-based
MOLM-13 [28] = test: Inhibition of methylation of H3K79 in human MOLM-13 cells assessed as inhibition of methylation at HOXA2 gene cluster by chromatin immunoprecipitation assay; type: functional, cell-based
MOLM-13 [29] = test: Inhibition of methylation of H3K79 in human MOLM-13 cells assessed as inhibition of methylation at HOXA4 gene cluster by chromatin immunoprecipitation assay; type: functional, cell-based
MOLM-13 [30] = test: Inhibition of methylation of H3K79 in human MOLM-13 cells assessed as inhibition of methylation at HOXA6 gene cluster by chromatin immunoprecipitation assay; type: functional, cell-based
MOLM-13 [31] = test: Inhibition of methylation of H3K79 in human MOLM-13 cells assessed as inhibition of methylation at HOXA10 gene cluster by chromatin immunoprecipitation assay; type: functional, cell-based
MOLM-13 [32] = test: Inhibition of methylation of H3K79 in human MOLM-13 cells assessed as inhibition of methylation at HOXA-AS2 gene cluster by chromatin immunoprecipitation assay; type: functional, cell-based
MOLM-13 [33] = test: Inhibition of methylation of H3K79 in human MOLM-13 cells assessed as inhibition of methylation at HOXA5 gene cluster by chromatin immunoprecipitation assay; type: functional, cell-based
MOLM-13 [34] = test: Inhibition of methylation of H3K79 in human MOLM-13 cells assessed as inhibition of methylation at HOXA7 gene cluster by chromatin immunoprecipitation assay; type: functional, cell-based
MOLM-13 [35] = test: Inhibition of methylation of H3K79 in human MOLM-13 cells assessed as inhibition of methylation at HOXA11 gene cluster by chromatin immunoprecipitation assay; type: functional, cell-based
MOLM-13 [36] = test: Inhibition of methylation of H3K79 in human MOLM-13 cells assessed as inhibition of methylation at MEIS1-AS3 gene cluster by chromatin immunoprecipitation assay; type: functional, cell-based
MOLM-13 [37] = test: Inhibition of methylation of H3K79 in human MOLM-13 cells assessed as inhibition of methylation at MEIS1 gene cluster by chromatin immunoprecipitation assay; type: functional, cell-based
MOLM-13 [38] = test: Down regulation of MEF2C gene in human MOLM-13 cells by RNA-sequencing analysis; type: functional, cell-based
MOLM-13 [39] = test: Down regulation of HOXA10 gene in human MOLM-13 cells by RNA-sequencing analysis; type: functional, cell-based
MOLM-13 [40] = test: Down regulation of PBX3 gene in human MOLM-13 cells by RNA-sequencing analysis; type: functional, cell-based
MOLM-13 [41] = test: Down regulation of SKP2 gene in human MOLM-13 cells by RNA-sequencing analysis; type: functional, cell-based
MOLM-13 [42] = test: Down regulation of SSBP2 gene in human MOLM-13 cells by RNA-sequencing analysis; type: functional, cell-based
MOLM-13 [43] = test: Down regulation of MCM2 gene in human MOLM-13 cells by RNA-sequencing analysis; type: functional, cell-based
MOLM-13 [44] = test: Down regulation of HOXA11 gene in human MOLM-13 cells by RNA-sequencing analysis; type: functional, cell-based
MOLM-13 [45] = test: Down regulation of GATA2 gene in human MOLM-13 cells by RNA-sequencing analysis; type: functional, cell-based
MOLM-13 [46] = test: Down regulation of AC011043.1 gene in human MOLM-13 cells by RNA-sequencing analysis; type: functional, cell-based
MOLM-13 [47] = test: Down regulation of MEIS1 gene in human MOLM-13 cells by RNA-sequencing analysis; type: functional, cell-based
MOLM-13 [48] = test: cells; conditions: Homo sapiens, MOLM-13, 192 h
Description: Anticancer activity against human MOLM-13 cells harbouring MLL-AF9 assessed as inhibition of cell growth treated for 8 days measured by CCK-8 kit method

KOPN-8 = test: cells; conditions: Homo sapiens, KOPN-8, 192 h
Description: Anticancer activity against human KOPN-8 cells harbouring MLL-ENL assessed as inhibition of cell growth treated for 8 days measured by CCK-8 kit method

MOLM-13 [49] = test: cells; conditions: Homo sapiens, MOLM-13, 96 h
Description: Anticancer activity against human MOLM-13 cells harbouring MLL-AF9 assessed as inhibition of cell growth treated for 4 days measured by CCK-8 kit method

MOLM-13 [50] = test: cells; conditions: Homo sapiens, MOLM-13, 120 h
Description: Anticancer activity against human MOLM-13 cells harbouring MLL-AF9 assessed as inhibition of cell growth treated for 5 days measured by CCK-8 kit method

MOLM-13 [51] = test: cells; conditions: Homo sapiens, MOLM-13, 144 h
Description: Anticancer activity against human MOLM-13 cells harbouring MLL-AF9 assessed as inhibition of cell growth treated for 6 days measured by CCK-8 kit method

MOLM-13 [52] = test: cells; conditions: Homo sapiens, MOLM-13, 168 h
Description: Anticancer activity against human MOLM-13 cells harbouring MLL-AF9 assessed as inhibition of cell growth treated for 7 days measured by CCK-8 kit method

MOLM-13 [53] = test: cells; conditions: Homo sapiens, MOLM-13, 216 h
Description: Anticancer activity against human MOLM-13 cells harbouring MLL-AF9 assessed as inhibition of cell growth treated for 9 days measured by CCK-8 kit method

IC50 (RS4-11): 0.07 µM | IC50 (MV4-11): 0.05 µM | IC50 (K562): 31 µM | IC50 (MOLM-13 [48]): 0.03 µM | IC50 (KOPN-8): 0.06 µM | IC50 (MOLM-13 [49]): 0.227 µM | IC50 (MOLM-13 [50]): 0.097 µM | IC50 (MOLM-13 [51]): 0.073 µM | IC50 (MOLM-13 [52]): 0.059 µM | IC50 (MOLM-13 [53]): 0.021 µM
Compound: CC(C)N(C[C@H]1O[C@@H](n2cnc3c(N)ncnc32)[C@H](O)[C@@H]1O)[C@H]1C[C@@H](CCc2nc3cc(C(C)(C)C)ccc3[nH]2)C1 [PINOMETOSTAT]
Activity (MOLM-13 [1]): Active | Activity (MOLM-13 [2]): Active | Activity (MOLM-13 [3]): Active | Activity (MOLM-13 [4]): Active | Activity (MOLM-13 [5]): Active | Activity (MOLM-13 [6]): Active | Activity (MOLM-13 [7]): Active | Activity (MOLM-13 [8]): Active | Activity (MOLM-13 [9]): Active | Activity (MOLM-13 [10]): Active | Activity (MOLM-13 [11]): Active | Activity (MOLM-13 [12]): Active | Activity (MOLM-13 [13]): Active | Activity (MOLM-13 [14]): Active | Activity (MOLM-13 [15]): Active | Activity (MOLM-13 [16]): Active | inhibition (MOLM-13 [17]): Active | inhibition (MOLM-13 [18]): Tde | Activity (MOLM-13 [19]): Active | inhibition (MOLM-13 [20]): Active | inhibition (MOLM-13 [21]): Tde | inhibition (MOLM-13 [22]): 100% | inhibition (MOLM-13 [23]): Active | inhibition (MOLM-13 [24]): Active | inhibition (MOLM-13 [25]): Active | inhibition (MOLM-13 [26]): Active | inhibition (MOLM-13 [27]): Active | inhibition (MOLM-13 [28]): Active | inhibition (MOLM-13 [29]): Active | inhibition (MOLM-13 [30]): Active | inhibition (MOLM-13 [31]): Active | inhibition (MOLM-13 [32]): Active | inhibition (MOLM-13 [33]): Active | inhibition (MOLM-13 [34]): Active | inhibition (MOLM-13 [35]): Active | inhibition (MOLM-13 [36]): Active | inhibition (MOLM-13 [37]): Active | Activity (MOLM-13 [38]): Active | Activity (MOLM-13 [39]): Active | Activity (MOLM-13 [40]): Active | Activity (MOLM-13 [41]): Active | Activity (MOLM-13 [42]): Active | Activity (MOLM-13 [43]): Active | Activity (MOLM-13 [44]): Active | Activity (MOLM-13 [45]): Active | Activity (MOLM-13 [46]): Active | Activity (MOLM-13 [47]): Active
